Test results reported in paper PMC6303390, “Nucleotide-dependent DNA gripping and an end-clamp mechanism regulate the bacteriophage T4 viral packaging motor” (Nature Communications, 2018).

How the values were obtained:
[1] = target: T1, bacteriophage T4 packaging motor (gp17 on emptied T4 heads) (Tequatrovirus T4, UniProt P17312); experiment: optical tweezers single-DNA packaging assay; assay type: biochemical; details: ATP-driven DNA translocation; 50 mM Tris-HCl pH 7.5, 5 mM MgCl2, 80 mM NaCl
T1 construct: gene 17; N-terminally His-tagged recombinant gp17 from E. coli, assembled as pentamer on emptied heads (10am13am mutant phage) that carry the gp20 portal; with Portal protein

[2] = target: T1, bacteriophage T4 packaging motor (gp17 on emptied T4 heads); experiment: optical tweezers single-DNA grip/slip assay with solution exchange; assay type: binding; details: 0.5 mM ADP, 5 pN force; 50 mM Tris-HCl pH 7.5, 5 mM MgCl2, 80 mM NaCl

T1 sequence (P17312 whole entry): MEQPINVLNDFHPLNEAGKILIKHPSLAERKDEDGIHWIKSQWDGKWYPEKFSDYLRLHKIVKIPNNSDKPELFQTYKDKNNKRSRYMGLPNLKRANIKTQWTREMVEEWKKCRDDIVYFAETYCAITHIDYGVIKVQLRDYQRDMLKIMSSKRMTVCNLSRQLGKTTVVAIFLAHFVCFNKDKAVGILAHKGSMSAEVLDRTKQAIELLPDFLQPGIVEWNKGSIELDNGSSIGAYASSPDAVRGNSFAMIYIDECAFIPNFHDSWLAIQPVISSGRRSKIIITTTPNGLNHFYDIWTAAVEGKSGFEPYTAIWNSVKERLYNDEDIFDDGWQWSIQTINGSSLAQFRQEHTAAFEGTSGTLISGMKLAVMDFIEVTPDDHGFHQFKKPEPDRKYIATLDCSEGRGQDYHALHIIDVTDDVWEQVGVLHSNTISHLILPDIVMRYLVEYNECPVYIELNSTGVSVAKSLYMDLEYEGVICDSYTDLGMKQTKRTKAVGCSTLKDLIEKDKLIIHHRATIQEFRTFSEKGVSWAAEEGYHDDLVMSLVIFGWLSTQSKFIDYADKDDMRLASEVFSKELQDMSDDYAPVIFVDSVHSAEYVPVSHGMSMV

Structure (SMILES) | optical tweezers single-DNA packaging assay [1] | optical tweezers single-DNA grip/slip assay with solution exchange [2]
Nc1ncnc2c1ncn2[C@@H]1O[C@H](COP(=O)(O)OP(=O)(O)OP(=O)(O)O)[C@@H](O)[C@H]1O [ATP] | In each case the motor restarts when the complex is moved back into ATP | 
Nc1ncnc2c1ncn2[C@@H]1O[C@H](COP(=O)(O)OP(=O)(O)O)[C@@H](O)[C@H]1O [ADP] |  | when ADP is used highly intermittent gripping is observed
